Consider 1 substance from patent US11008340B2, “Modulators of ROR-gamma” (Vitae Pharmaceuticals, LLC, priority 2015, dated 2021).

Where only a bound is given, the exact number is not on record here.

Experiment [1] has as its target T1, recombinant RORγ Ligand Binding Domain (LBD) protein (Homo sapiens, UniProt P51449).
T1 construct: 6×His; GST
T1 sequence (P51449 269-508 limits assumed): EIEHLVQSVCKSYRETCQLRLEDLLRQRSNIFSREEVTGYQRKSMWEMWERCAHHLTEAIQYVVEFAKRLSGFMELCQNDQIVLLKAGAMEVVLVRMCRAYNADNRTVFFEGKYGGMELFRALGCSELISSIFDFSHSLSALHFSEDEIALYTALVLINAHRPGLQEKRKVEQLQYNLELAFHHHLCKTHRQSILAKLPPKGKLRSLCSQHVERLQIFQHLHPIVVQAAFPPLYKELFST
Put plainly: Radio-Ligand RORγ Binding Assay (Assay 1). The following applies: radio-ligand competition, 25-hydroxy [26,27-3H]-cholesterol, RORγ LBD; read-out: Avg ROR Bind Ki. In a few lines:
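Cell-free SPA competition between compound and 25-hydroxy[26,27-^3H]-cholesterol for 6×His-GST-tagged RORγ LBD in 50 mM HEPES pH 7.4 with NaCl, MgCl2, glycerol, CHAPS, octylglucoside and DTT. Mix was shaken 20 min, held 10 min at rt, then read after poly-Lys YSi beads. IC50 came from a four-parameter fit, and Ki from radioligand KD.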

Experiment [2] deals with T2, full-length RORγt in Jurkat cells (Homo sapiens, UniProt P51449).
T2 construct: transcriptional activity of the full-length RORγt in Jurkat cells; host or cells: Jurkat cells (ATCC TIB-152)
T2 sequence (P51449 1-497 isoform P51449-2): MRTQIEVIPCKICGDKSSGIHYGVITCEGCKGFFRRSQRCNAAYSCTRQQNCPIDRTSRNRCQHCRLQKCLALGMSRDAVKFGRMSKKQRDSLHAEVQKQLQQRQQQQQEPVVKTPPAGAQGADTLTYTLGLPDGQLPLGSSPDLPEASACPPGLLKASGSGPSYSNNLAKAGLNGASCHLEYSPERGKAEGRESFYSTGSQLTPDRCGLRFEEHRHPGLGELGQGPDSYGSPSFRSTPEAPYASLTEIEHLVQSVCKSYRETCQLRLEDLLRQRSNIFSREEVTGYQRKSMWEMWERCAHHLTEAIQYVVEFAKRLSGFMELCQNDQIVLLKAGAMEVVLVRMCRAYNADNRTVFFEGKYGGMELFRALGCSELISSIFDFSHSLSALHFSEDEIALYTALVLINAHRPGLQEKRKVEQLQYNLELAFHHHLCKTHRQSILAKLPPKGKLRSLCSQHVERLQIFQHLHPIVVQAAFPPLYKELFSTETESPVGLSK
Briefly: RORγt 5×RORE Assay in Jurkat Cells (Assay 2). It is filed as cell-based. The following applies: 5×RORE luciferase reporter, read-out: Avg ROR γt/5x IC50. In a few lines:
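Inverse agonism measured as reduced NanoGlo signal from secreted NanoLuc in conditioned supernatant after 16-18 hrs compound exposure (37° C, 0.1% DMSO). Reporter: 5×RORE-driven secNluc, co-transfected with full-length RORγt into Jurkat cells cultured in delipidated-FBS, phenol-red-free RPMI.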

As for “Mixture of N-((R)-1-(4-(ethylsulfonyl)phenyl)-2-hydroxyethyl)-3-methyl-1-(((3S,6S)-6-(trifluoromethyl)tetrahydro-2H-pyran-3-yl)methoxy)isoquinoline-6-carboxamide and N-((R)-1-(4-(ethylsulfonyl)phenyl)-2-hydroxyethyl)-3-methyl-1-(((3R,6R)-6-(trifluoromethyl)tetrahydro-2H-pyran-3-yl)methoxy)isoquinoline-6-carboxamide [Hy1A-18.3]”, in experiment [1], the Ki was less than 100 nM. Besides, in experiment [2], the IC50 is greater than 1000 nM.
